Measurements reported in article PMC6063448, “Antimicrobial activity of linear lipopeptides derived from BP100 towards plant pathogens” (PLoS ONE, 2018).

Tests used:
[1] = system: defense-related genes in tomato plants; test: Induction of defense gene expression of tomato plants (RT-qPCR); assay type: in vivo, tomato cv. Rio Grande; settings: for BCB gene expression, fold induction / ERT3 gene expression, fold induction / GluA gene expression, fold induction / Harp gene expression, fold induction / LOX gene expression, fold induction / Osm2 gene expression, fold induction / PPO gene expression, fold induction / PR1 gene expression, fold induction / Sub1 gene expression, fold induction / Tas14 gene expression, fold induction / PinII gene expression, fold induction: tomato leaves sprayed, 24 h, peptides and flg15 125 μM, JA 2.5 mM, ASM 300 mg/L, ΔΔCt relative to actin, above 2 = overexpression; for Defense gene expression in tomato plants (genes overexpressed): treatment at 125 μM, significant overexpression (REST2009)
Procedure: Seeds of tomato cv. Rio Grande plants were sown in hydroponic seed plugs (rockwool), germinated and grown under controlled greenhouse conditions (25 ± 2°C, 16 h light / 15 ± 2°C, 8 h dark, and 60% RH). Two-week old seedlings (two cotyledons) were transplanted into rockwool plugs (7.5×7.5×6.5 cm, Grodan Iberica). The experimental design consisted of three replicates of three plants per treatment. After two weeks, tomato leaves were sprayed with aqueous solutions of BP100, 9 selected derivatives and flg15 at 125 μM, jasmonic acid at 2.5 mM (Sigma-Aldrich, Sant Louis, Missouri, UE), and acybenzolar-S-methyl at 300 mg/L (Syngenta, Basel, Switzerland), until the run-off point. Water-sprayed plants were used as not treated controls. Twenty-four hours after product application leaf samples were collected and processed to extract RNA for RT-qPCR assays. Plant material was ground to a fine powder in liquid nitrogen with the Tissuelyzer II system (Qiagen). Total RNA was extracted from leaves using PureLink Plant RNA Reagent (Invitrogen, Life Technologies) according to the manufacturer’s manual. The RNA was solubilized in RNAse free water and was routinely subjected to DNAse treatment (Ambion® Turbo DNA-free™, Life Technologies) to remove any contaminant DNA. In each step, the RNA was quantified using a Nanodrop N-2000 spectrophotometer, and its integrity verified by denaturing agarose gel electrophoresis. First-strand of complementary DNA (cDNA) was generated from leave RNA using reverse transcriptase (High Capacity cDNA Reverse Transcription Kit, Invitrogen) according to the manufacturer’s manual.
To test gene defense induction in the treated tomato plants, a qPCR assay was performed. Quantitative PCR was carried out in a fluorometric thermal cycler (qPCR Quant Studio 5, Applied Biosystems) by using a Mix SYBR®Green PCR Master Mix (Applied Biosystems). The total reaction volume of this PCR reaction was 20 μL and the reaction mixture was 1 μL of each primer set at the adequate concentration, 10 μL of MixSyber Green, 6 μL of distilled water and 2 μL of cDNA. Melting curve analysis was performed after amplification to verify amplification specificity. A constitutive gene (actin gene) was used as reference control, and the following genes implicated in plant defense response were analyzed: Pathogenesis-related protein-1 (PR1), Harpin (Harp), Polyphenol oxidase (PPO), Subtilisin-like protease (Sub1), Blue copper binding-protein (BCB), Osmotin (Osm2), Acidic β-1,3 endoglucanase (GluA), Lypoxigenase (LOX), Protein inhibitor II (PinII), Dehydrin (Tas14) and Ethylene response transcription factor (ERT3). […] For each gene system, the concentration of the primer pair was optimized. The primer concentration was 100 nM for all the genes except for the GluA, Harp, PR1 and actin genes which optimized concentration was 300 nM. A calibration curve was prepared by cloning the corresponding DNA in the pSpark cloning vector (Canvax, Córdoba, Spain) according to the manufacturer instructions, which was then used to transform E. coli DH5α by standard procedures. The number of plasmid copies were quantified after purification from E. coli (QIAGEN Iberia, S. L., Madrid, Spain), and appropriate dilutions were prepared to obtain the standard curve. […] Relative quantification of gene expression was done using the ΔΔCt method. Each biological repetition treatment was analyzed in duplicate. The mean of the Ct values obtained were used to estimate the fold change value of the endogenous reference gene (actin) and the target plant defense genes.

[2] = system: Fusarium oxysporum f. sp. lycopersici FOL 3 race 2; test: MIC, antifungal growth inhibition in microtiter plates (PDB); assay type: cell-based; settings: Fo, 22°C, seven days, OD 600 nm, lowest concentration with no growth, given as interval of tested concentrations, three replicates, experiment repeated twice
Outline: (§1)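 Conidial suspensions (10^3 conidia/mL P. expansum, 10^4 F. oxysporum) incubated with peptides in PDB with 0.003% chloramphenicol at 22 °C for seven days, OD600 read every 2 h. MIC is the lowest concentration with no growth at the end; triplicates, experiment repeated twice.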

[3] = system: Penicillium expansum EPS26; test: as above; assay type: cell-based; settings: Pe, 22°C, seven days, OD 600 nm, lowest concentration with no growth, given as interval of tested concentrations, three replicates, experiment repeated twice
Outline: as §1

CCCC(=O)NCCCC[C@H](NC(=O)[C@@H](NC(=O)[C@H](CCCCN)NC(=O)[C@H](CCCCN)NC(=O)[C@H](Cc1ccccc1)NC(=O)[C@H](CC(C)C)NC(=O)[C@H](CCCCN)NC(=O)[C@H](CCCCN)NC(C)=O)[C@@H](C)CC)C(=O)N[C@@H](CCCCN)C(=O)N[C@@H](Cc1ccc(O)cc1)C(=O)N[C@@H](CC(C)C)C(N)=O [BP387, Ac-KKLFKKIK(COC3H7)KYL-NH2]
BCB gene expression, fold induction [1]: 1.7 | ERT3 gene expression, fold induction [1]: 0.2 | GluA gene expression, fold induction [1]: 0.7 | Harp gene expression, fold induction [1]: 1.2 | LOX gene expression, fold induction [1]: 0.7 | Osm2 gene expression, fold induction [1]: 1.0 | PPO gene expression, fold induction [1]: 1.3 | PR1 gene expression, fold induction [1]: 0.4 | Sub1 gene expression, fold induction [1]: 0.8 | Tas14 gene expression, fold induction [1]: 1.0 | Defense gene expression in tomato plants (genes overexpressed) [1]: none | MIC [2]: 0.8 to 1.6 µM | MIC [3]: 6.2 to 12.5 µM

CCCCCCCCCCCC(=O)NCCCC[C@H](NC(=O)[C@H](CC(C)C)NC(=O)[C@@H](NC(=O)[C@H](CCCCN)NC(=O)[C@H](CCCCN)NC(=O)[C@H](Cc1ccccc1)NC(=O)[C@H](CC(C)C)NC(=O)[C@H](CCCCN)NC(=O)[C@H](CCCCN)NC(C)=O)[C@@H](C)CC)C(=O)N[C@@H](Cc1ccc(O)cc1)C(=O)N[C@@H](CC(C)C)C(N)=O [BP400, Ac-KKLFKKILK(COC11H23)YL-NH2]
BCB gene expression, fold induction [1]: 0.6 | ERT3 gene expression, fold induction [1]: 0.2 | GluA gene expression, fold induction [1]: 0.1 | Harp gene expression, fold induction [1]: 1.4 | LOX gene expression, fold induction [1]: 1.1 | Osm2 gene expression, fold induction [1]: 0.9 | PPO gene expression, fold induction [1]: 1.4 | PR1 gene expression, fold induction [1]: 0.1 | PinII gene expression, fold induction [1]: 1.1 | Sub1 gene expression, fold induction [1]: 0.5 | Tas14 gene expression, fold induction [1]: 8.3 | Defense gene expression in tomato plants (genes overexpressed) [1]: one gene (Osm2, Tas14 or BCB) | MIC [2]: 6.2 to 12.5 µM | MIC [3]: >25 µM

CC[C@H](C)[C@H](NC(=O)[C@H](CCCCN)NC(=O)[C@H](CCCCN)NC(=O)[C@H](Cc1ccccc1)NC(=O)[C@H](CC(C)C)NC(=O)[C@H](CCCCN)NC(=O)[C@@H](N)CCCCN)C(=O)N[C@@H](CC(C)C)C(=O)N[C@@H](CCCCN)C(=O)N[C@@H](Cc1ccc(O)cc1)C(=O)N[C@@H](CC(C)C)C(N)=O [BP100, H-Lys-Lys-Leu-Phe-Lys-Lys-Ile-Leu-Lys-Tyr-Leu-NH2]
BCB gene expression, fold induction [1]: 0.8 | ERT3 gene expression, fold induction [1]: 1.0 | GluA gene expression, fold induction [1]: 1.5 | Harp gene expression, fold induction [1]: 0.5 | LOX gene expression, fold induction [1]: 1.2 | Osm2 gene expression, fold induction [1]: 1.0 | PPO gene expression, fold induction [1]: 3.2 | PR1 gene expression, fold induction [1]: 2 | PinII gene expression, fold induction [1]: 4.9 | Sub1 gene expression, fold induction [1]: 1.8 | Tas14 gene expression, fold induction [1]: 1.4 | Defense gene expression in tomato plants (genes overexpressed) [1]: PPO and PinII | MIC [2]: 0.8 to 1.6 µM | MIC [3]: >25 µM
